Results taken from ChEMBL document CHEMBL1649312, “Absence of association between piperaquine in vitro responses and polymorphisms in the pfcrt, pfmdr1, pfmrp, and pfnhe genes in Plasmodium falciparum” (Antimicrob Agents Chemother, 2010).

Key:
Type in all cases: functional, organism-based
[1] = tested on: Plasmodium falciparum; experiment: Antimalarial activity against Plasmodium falciparum IMT 31 assessed as inhibition of [3H] incorporation after 48 hrs by scintillation counter
[2] = tested on: Plasmodium falciparum; experiment: Antimalarial activity against Plasmodium falciparum IMT 16332 assessed as inhibition of [3H] incorporation after 48 hrs by scintillation counter
[3] = tested on: Plasmodium falciparum; experiment: Antimalarial activity against Plasmodium falciparum IMT 10354 assessed as inhibition of [3H] incorporation after 48 hrs by scintillation counter
[4] = tested on: Plasmodium falciparum; experiment: Antimalarial activity against Plasmodium falciparum IMT Guy assessed as inhibition of [3H] incorporation after 48 hrs by scintillation counter
[5] = tested on: Plasmodium falciparum; experiment: Antimalarial activity against Plasmodium falciparum IMT 8425 assessed as inhibition of [3H] incorporation after 48 hrs by scintillation counter
[6] = tested on: Plasmodium falciparum; experiment: Antimalarial activity against Plasmodium falciparum IMT K2 assessed as inhibition of [3H] incorporation after 48 hrs by scintillation counter
[7] = tested on: Plasmodium falciparum; experiment: Antimalarial activity against Plasmodium falciparum IMT K14 assessed as inhibition of [3H] incorporation after 48 hrs by scintillation counter
[8] = tested on: Plasmodium falciparum; experiment: Antimalarial activity against Plasmodium falciparum 106/1 assessed as inhibition of [3H] incorporation after 48 hrs by scintillation counter
[9] = tested on: Plasmodium falciparum; experiment: Antimalarial activity against Plasmodium falciparum IMT K4 assessed as inhibition of [3H] incorporation after 48 hrs by scintillation counter
[10] = tested on: Plasmodium falciparum; experiment: Antimalarial activity against Plasmodium falciparum 3D7 assessed as inhibition of [3H] incorporation after 48 hrs by scintillation counter
[11] = tested on: Plasmodium falciparum; experiment: Antimalarial activity against Plasmodium falciparum D6 assessed as inhibition of [3H] incorporation after 48 hrs by scintillation counter
[12] = tested on: Plasmodium falciparum; experiment: Antimalarial activity against Plasmodium falciparum IMT Bres assessed as inhibition of [3H] incorporation after 48 hrs by scintillation counter
[13] = tested on: Plasmodium falciparum; experiment: Antimalarial activity against Plasmodium falciparum 3D7 harboring Ppcrt I371R mutant gene and Pfnhe-1 ms4760 microsatellite mutant assessed as incorporation of [3]H hypoxanthine after 48 hrs by scintillation counter; conditions: 3D7, 48 h
[14] = tested on: Plasmodium falciparum; experiment: Antimalarial activity against Plasmodium falciparum FCM29 assessed as inhibition of [3H] incorporation after 48 hrs by scintillation counter
[15] = tested on: Plasmodium falciparum; experiment: Antimalarial activity against Plasmodium falciparum IMT Vol assessed as inhibition of [3H] incorporation after 48 hrs by scintillation counter
[16] = tested on: Plasmodium falciparum; experiment: Antimalarial activity against Plasmodium falciparum IMT L1 harboring Ppcrt M74I, N75E, K76T, A220S, Q271E mutant gene, Pmdr1 N86Y mutant gene and Pfmrp H191Y and S437A mutant gene assessed as incorporation of [3]H hypoxanthine after 48 hrs by scintillation counter; conditions: IMT L1, 48 h
[17] = tested on: Plasmodium falciparum; experiment: Antimalarial activity against Plasmodium falciparum PA harboring Ppcrt M74I, N75E, K76T, A220S, Q271E, N326S and I356T mutant gene, Pmdr1 N86Y mutant gene and Pfmrp H191Y and S437A mutant gene assessed as incorporation of [3]H hypoxanthine after 48 hrs by scintillation counter
[18] = tested on: Plasmodium falciparum; experiment: Antimalarial activity against Plasmodium falciparum 106/1 harboring Ppcrt M74I, N75E, K76T, A220S, Q271E, N326S and I356T mutant gene, Pmdr1 N86Y mutant gene and Pfmrp H191Y and S437A mutant gene assessed as incorporation of [3]H hypoxanthine after 48 hrs by scintillation counter; conditions: 106/1, 48 h
[19] = tested on: Plasmodium falciparum; experiment: Antimalarial activity against Plasmodium falciparum IMT K4 harboring Ppcrt M74I, N75E, K76T, A220S, Q271E, N326S mutant gene, Pmdr1 S1034C, N1042D mutant gene and Pfmrp H191Y and S437A mutant gene assessed as incorporation of [3]H hypoxanthine after 48 hrs by scintillation counter; conditions: IMT K4, 48 h
[20] = tested on: Plasmodium falciparum; experiment: Antimalarial activity against Plasmodium falciparum FCR3 assessed as inhibition of [3H] incorporation after 48 hrs by scintillation counter
[21] = tested on: Plasmodium falciparum; experiment: Antimalarial activity against Plasmodium falciparum IMT 31 harboring Ppcrt I371R mutant gene assessed as incorporation of [3]H hypoxanthine after 48 hrs by scintillation counter; conditions: IMT 31, 48 h
[22] = tested on: Plasmodium falciparum; experiment: Antimalarial activity against Plasmodium falciparum IMT 10354 harboring Ppcrt M74I, N75E, K76T, A220S mutant gene, Pmdr1 D1246Y mutant gene assessed as incorporation of [3]H hypoxanthine after 48 hrs by scintillation counter; conditions: IMT 10354, 48 h
[23] = tested on: Plasmodium falciparum; experiment: Antimalarial activity against Plasmodium falciparum IMT 16332 harboring Ppcrt M74I, N75E, K76T, A220S, Q271E mutant gene, Pmdr1 N86Y mutant gene assessed as incorporation of [3]H hypoxanthine after 48 hrs by scintillation counter; conditions: IMT 16332, 48 h
[24] = tested on: Plasmodium falciparum; experiment: Antimalarial activity against Plasmodium falciparum FCM29 harboring Ppcrt M74I, N75E, K76T, A220S, Q271E, N326S and I356T mutant gene, Pmdr1 N86Y mutant gene and Pfmrp H191Y and S437A mutant gene assessed as incorporation of [3]H hypoxanthine after 48 hrs by scintillation counter; conditions: FCM29, 48 h
[25] = tested on: Plasmodium falciparum; experiment: Antimalarial activity against Plasmodium falciparum FCR3 harboring Ppcrt M74I, N75E, K76T, A220S, Q271E, N326S and I356T mutant gene, Pmdr1 N86Y mutant gene and Pfmrp H191Y and S437A mutant gene assessed as incorporation of [3]H hypoxanthine after 48 hrs by scintillation counter; conditions: FCR3, 48 h
[26] = tested on: Plasmodium falciparum; experiment: Antimalarial activity against Plasmodium falciparum IMT L1 assessed as inhibition of [3H] incorporation after 48 hrs by scintillation counter
[27] = tested on: Plasmodium falciparum; experiment: Antimalarial activity against Plasmodium falciparum IMT 10336 assessed as inhibition of [3H] incorporation after 48 hrs by scintillation counter
[28] = tested on: Plasmodium falciparum; experiment: Antimalarial activity against Plasmodium falciparum W2 harboring Ppcrt M74I, N75E, K76T, A220S, Q271E, N326S and I356T mutant gene, Pmdr1 N86Y mutant gene and Pfmrp H191Y and S437A mutant gene assessed as incorporation of [3]H hypoxanthine after 48 hrs by scintillation counter; conditions: W2, 48 h
[29] = tested on: Plasmodium falciparum; experiment: Antimalarial activity against Plasmodium falciparum IMT 9881 assessed as inhibition of [3H] incorporation after 48 hrs by scintillation counter
[30] = tested on: Plasmodium falciparum; experiment: Antimalarial activity against Plasmodium falciparum IMT Vol harboring Ppcrt M74I, N75E, K76T, A220S, Q271E, N326S mutant gene, Pmdr1 N86Y mutant gene and Pfmrp H191Y and S437A mutant gene assessed as incorporation of [3]H hypoxanthine after 48 hrs by scintillation counter
[31] = tested on: Plasmodium falciparum; experiment: Antimalarial activity against Plasmodium falciparum W2 assessed as inhibition of [3H] incorporation after 48 hrs by scintillation counter
[32] = tested on: Plasmodium falciparum; experiment: Antimalarial activity against Plasmodium falciparum IMT 9881 harboring Ppcrt I371R mutant gene assessed as incorporation of [3]H hypoxanthine after 48 hrs by scintillation counter; conditions: IMT 9881, 48 h
[33] = tested on: Plasmodium falciparum; experiment: Antimalarial activity against Plasmodium falciparum IMT 10336 harboring Pfcrt Q271E mutant gene and Ppcrt I371R mutant gene assessed as incorporation of [3]H hypoxanthine after 48 hrs by scintillation counter; conditions: IMT 10336, 48 h
[34] = tested on: Plasmodium falciparum; experiment: Antimalarial activity against Plasmodium falciparum IMT 8425 harboring Ppcrt I371R mutant gene and Pfnhe-1 ms4760 microsatellite mutant assessed as incorporation of [3]H hypoxanthine after 48 hrs by scintillation counter; conditions: IMT 8425, 48 h
[35] = tested on: Plasmodium falciparum; experiment: Antimalarial activity against Plasmodium falciparum IMT A4 harboring Ppcrt M74I, N75E, K76T, […], Q271E, N326S and I356T mutant gene, Pmdr1 Y184F, N1042D, D1246Y mutant gene assessed as incorporation of [3]H hypoxanthine after 48 hrs by scintillation counter; conditions: IMT A4, 48 h
[36] = tested on: Plasmodium falciparum; experiment: Antimalarial activity against Plasmodium falciparum IMT 10500 harboring Pfcrt Q271E mutant gene and Ppcrt I371R mutant gene and Pfnhe-1 ms4760 microsatellite mutant assessed as incorporation of [3]H hypoxanthine after 48 hrs by scintillation counter; conditions: IMT 10500, 48 h
[37] = tested on: Plasmodium falciparum; experiment: Antimalarial activity against Plasmodium falciparum PA assessed as inhibition of [3H] incorporation after 48 hrs by scintillation counter
[38] = tested on: Plasmodium falciparum; experiment: Antimalarial activity against Plasmodium falciparum IMT A4 assessed as inhibition of [3H] incorporation after 48 hrs by scintillation counter
[39] = tested on: Plasmodium falciparum; experiment: Antimalarial activity against Plasmodium falciparum D6 harboring Ppcrt I371R mutant gene assessed as incorporation of [3]H hypoxanthine after 48 hrs by scintillation counter; conditions: D6, 48 h
[40] = tested on: Plasmodium falciparum; experiment: Antimalarial activity against Plasmodium falciparum IMT K14 harboring Ppcrt M74I, N75E, K76T, A220S, Q271E, N326S mutant gene, Pmdr1 Y184F, S1034C, N1042D, D1246Y mutant gene and Pfmrp H191Y and S437A mutant gene assessed as incorporation of [3]H hypoxanthine after 48 hrs by scintillation counter; conditions: IMT K14, 48 h
[41] = tested on: Plasmodium falciparum; experiment: Antimalarial activity against Plasmodium falciparum IMT K2 harboring Ppcrt M74I, N75E, K76T, A220S, Q271E, N326S mutant gene, Pmdr1 S1034C, N1042D mutant gene and Pfmrp H191Y and S437A mutant gene assessed as incorporation of [3]H hypoxanthine after 48 hrs by scintillation counter; conditions: IMT K2, 48 h
[42] = tested on: Plasmodium falciparum; experiment: Antimalarial activity against Plasmodium falciparum IMT Bres harboring Ppcrt M74I, N75E, K76T, A220S, Q271E, N326S and I356T mutant gene, Pmdr1 N86Y mutant gene and Pfmrp H191Y and S437A mutant gene assessed as incorporation of [3]H hypoxanthine after 48 hrs by scintillation counter
[43] = tested on: Plasmodium falciparum; experiment: Antimalarial activity against Plasmodium falciparum IMT Guy harboring Ppcrt K76T, A220S, N326D and I371R mutant gene, Pmdr1 […], 1042D and D1246Y, mutant gene and Pfmrp H191Y and S437A mutant gene and Pfnhe-1 ms4760 microsatellite mutant assessed as incorporation of [3]H hypoxanthine after 48 hrs by scintillation counter
[44] = tested on: Plasmodium falciparum; experiment: Antimalarial activity against Plasmodium falciparum IMT 10500 assessed as inhibition of [3H] incorporation after 48 hrs by scintillation counter
[45] = tested on: Plasmodium falciparum; experiment: Antimalarial activity against Plasmodium falciparum HB3 harboring Ppcrt I371R mutant gene and Pfmdr1 Y184F mutant gene assessed as incorporation of [3]H hypoxanthine after 48 hrs by scintillation counter; conditions: HB3, 48 h

C=C[C@H]1CN2CC[C@H]1C[C@H]2[C@H](O)c1ccnc2ccc(OC)cc12 [QUININE]
IC50 [1]: 272 nM
IC50 [2]: 240 nM
IC50 [3]: 118 nM
IC50 [4]: 322 nM
IC50 [5]: 138 nM
IC50 [6]: 607 nM
IC50 [7]: 969 nM
IC50 [8]: 135 nM
IC50 [9]: 953 nM
IC50 [10]: 134 nM
IC50 [11]: 48 nM
IC50 [12]: 604 nM

C[C@H]1[C@@H](O)O[C@@H]2O[C@@]3(C)CC[C@H]4[C@H](C)CC[C@@H]1[C@@]24OO3 [ARTENIMOL]
IC50 [13]: 2.8 nM
IC50 [14]: 1.3 nM
IC50 [1]: 1.7 nM
IC50 [15]: 1.2 nM
IC50 [16]: 0.9 nM
IC50 [17]: 1.4 nM
IC50 [18]: 5.8 nM
IC50 [19]: 3.4 nM
IC50 [2]: 1.1 nM
IC50 [20]: 1.6 nM
IC50 [21]: 1.7 nM
IC50 [22]: 0.4 nM
IC50 [3]: 0.4 nM
IC50 [23]: 1.1 nM
IC50 [24]: 1.3 nM
IC50 [5]: 1.7 nM
IC50 [25]: 1.6 nM
IC50 [26]: 0.9 nM
IC50 [27]: 1.6 nM
IC50 [6]: 1.2 nM
IC50 [28]: 3 nM
IC50 [29]: 3.5 nM
IC50 [7]: 2.1 nM
IC50 [30]: 1.2 nM
IC50 [31]: 3 nM
IC50 [32]: 3.5 nM
IC50 [9]: 3.4 nM
IC50 [33]: 1.6 nM
IC50 [10]: 2.8 nM
IC50 [11]: 1.4 nM
IC50 [34]: 1.7 nM
IC50 [35]: 1.5 nM
IC50 [12]: 1.4 nM
IC50 [36]: 3.3 nM
IC50 [37]: 1.4 nM
IC50 [38]: 1.5 nM
IC50 [39]: 1.4 nM
IC50 [40]: 2.1 nM
IC50 [41]: 1.2 nM
IC50 [42]: 1.4 nM
IC50 [43]: 1.8 nM
IC50 [44]: 3.3 nM
IC50 [45]: 3 nM
